Values quoted from earlier work, collected in patent US20170020833A1, “METHOD FOR TREATING AND/OR PREVENTING ACNE SCARS WITH A FIXED COMBINATION OF ADAPALENE OR ITS SALTS AND BENZOYL PEROXIDE” (GALDERMA RESEARCH & DEVELOPMENT, priority 2014, published 2017).

System: procollagen, MMP-1, 3 and MMP-9 in photodamage skin
Conditions: oral or topical; leading to MMP-1, 3 and MMP-9 decrease in relation to treatment duration

CC1=C(/C=C/C(C)=C/C=C/C(C)=C\C(=O)O)C(C)(C)CCC1 [isotretinoin]
Effect on UV-induced loss of procollagen: protects against UV-induced loss of procollagen
